In general, IC50 refers to the concentration at which inhibition is half-maximal.

Results on six compounds are retold here after patent US20140171427A1, “Heterocyclic chromene-spirocyclic piperidine amides as modulators of ion channels” (VERTEX PHARMACEUTICALS INCORPORATED, priority 2010, published 2014).

This assay deals with human NaV subtype. The assay can be described thus: E-VIPR optical membrane potential assay with electrical stimulation. The assay is classed as cell-based. To be noted: active against one or more sodium channels; assay and NaV subtype not specified for Table 3; read-out: Binned Activity Data (IC50). The source says: E-VIPR Optical Membrane Potential Assay Method with Electrical Stimulation
human NaV subtype, sequence (Q15858 whole entry): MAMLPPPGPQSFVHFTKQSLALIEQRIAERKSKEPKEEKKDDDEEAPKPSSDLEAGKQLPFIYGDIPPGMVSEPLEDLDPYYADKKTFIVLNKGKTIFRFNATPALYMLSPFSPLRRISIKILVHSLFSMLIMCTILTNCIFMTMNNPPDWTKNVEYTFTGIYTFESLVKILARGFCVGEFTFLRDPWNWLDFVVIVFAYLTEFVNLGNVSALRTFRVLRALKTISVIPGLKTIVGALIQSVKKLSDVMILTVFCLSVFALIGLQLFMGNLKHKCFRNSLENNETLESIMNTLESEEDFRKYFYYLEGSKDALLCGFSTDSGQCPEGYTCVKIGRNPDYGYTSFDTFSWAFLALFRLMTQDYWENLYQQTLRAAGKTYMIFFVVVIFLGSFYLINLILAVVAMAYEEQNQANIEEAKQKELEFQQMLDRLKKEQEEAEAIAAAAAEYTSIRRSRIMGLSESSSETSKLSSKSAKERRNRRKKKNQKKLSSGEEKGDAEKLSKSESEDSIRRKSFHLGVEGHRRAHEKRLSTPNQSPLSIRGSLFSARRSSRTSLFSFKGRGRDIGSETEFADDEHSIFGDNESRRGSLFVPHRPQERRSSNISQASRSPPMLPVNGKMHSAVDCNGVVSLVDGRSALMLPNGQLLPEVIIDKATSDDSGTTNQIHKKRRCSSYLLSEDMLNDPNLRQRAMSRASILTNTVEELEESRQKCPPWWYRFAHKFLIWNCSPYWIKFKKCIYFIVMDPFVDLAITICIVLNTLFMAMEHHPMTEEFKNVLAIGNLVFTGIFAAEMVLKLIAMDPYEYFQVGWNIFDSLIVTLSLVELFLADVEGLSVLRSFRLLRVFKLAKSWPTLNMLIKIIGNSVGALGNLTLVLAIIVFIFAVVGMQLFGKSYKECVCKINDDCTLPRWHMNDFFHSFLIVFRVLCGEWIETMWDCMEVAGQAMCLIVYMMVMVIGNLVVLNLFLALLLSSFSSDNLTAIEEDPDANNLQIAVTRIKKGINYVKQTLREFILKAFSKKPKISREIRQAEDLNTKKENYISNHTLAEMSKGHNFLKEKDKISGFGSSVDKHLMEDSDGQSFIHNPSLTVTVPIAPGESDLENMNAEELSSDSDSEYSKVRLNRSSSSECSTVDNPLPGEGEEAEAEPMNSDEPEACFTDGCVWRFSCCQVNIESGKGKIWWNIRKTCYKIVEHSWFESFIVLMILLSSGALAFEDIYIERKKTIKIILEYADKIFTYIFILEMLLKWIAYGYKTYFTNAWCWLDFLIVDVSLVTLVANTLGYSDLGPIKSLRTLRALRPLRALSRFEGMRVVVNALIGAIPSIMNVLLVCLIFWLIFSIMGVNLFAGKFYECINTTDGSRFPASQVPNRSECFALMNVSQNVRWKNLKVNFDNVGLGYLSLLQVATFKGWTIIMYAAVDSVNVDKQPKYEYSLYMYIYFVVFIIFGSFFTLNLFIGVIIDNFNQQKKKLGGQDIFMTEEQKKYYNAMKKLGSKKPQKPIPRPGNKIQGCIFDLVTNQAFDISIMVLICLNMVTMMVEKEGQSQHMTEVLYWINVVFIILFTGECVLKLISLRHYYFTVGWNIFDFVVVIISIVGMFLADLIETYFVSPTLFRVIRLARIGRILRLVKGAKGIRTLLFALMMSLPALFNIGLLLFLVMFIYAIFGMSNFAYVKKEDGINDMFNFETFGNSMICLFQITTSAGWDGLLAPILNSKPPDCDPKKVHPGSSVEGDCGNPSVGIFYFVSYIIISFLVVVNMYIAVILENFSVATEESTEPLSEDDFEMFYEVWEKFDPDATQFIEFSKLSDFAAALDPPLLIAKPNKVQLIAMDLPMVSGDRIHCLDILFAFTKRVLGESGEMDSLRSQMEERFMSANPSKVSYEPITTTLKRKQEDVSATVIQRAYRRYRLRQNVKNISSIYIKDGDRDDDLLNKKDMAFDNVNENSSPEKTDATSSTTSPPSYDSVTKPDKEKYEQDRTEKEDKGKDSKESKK
Sodium channels are voltage-dependent proteins that can be activated by inducing membrane voltage changes by applying electric fields. The electrical stimulation instrument and methods of use are described in Ion Channel Assay Methods PCT/US01/21652, herein incorporated by reference and are referred to as E-VIPR. The instrument comprises a microtiter plate handler, an optical system for exciting the coumarin dye while simultaneously recording the coumarin and oxonol emissions, a waveform generator, a current- or voltage-controlled amplifier, and a device for inserting electrodes in well. Under integrated computer control, this instrument passes user-programmed electrical stimulus protocols to cells within the wells of the microtiter plate.
24 hours before the assay on E-VIPR, HEK cells expressing human NaV subtype, like NaV 1.7, are seeded in 384-well poly-lysine coated plates at 15,000-20,000 cells per well. Other subtypes are performed in an analogous mode in a cell line expressing the NaV of interest. HEK cells are grown in media (exact composition is specific to each cell type and NaV subtype) supplemented with 10% FBS (Fetal Bovine Serum, qualified; GibcoBRL #16140-071) and 1% Pen-Strep (Penicillin-Streptomycin; GibcoBRL #15140-122). Cells are grown in vented cap flasks, in 90% humidity and 10% CO2, to 100% confluence. They are usually split by trypsinization 1:10 or 1:20, depending on scheduling needs, and grown for 2-3 days before the next split.
100 mg/mL Pluronic F-127 (Sigma #P2443), in dry DMSO
Compound Plates: 384-well round bottom plate, e.g. Corning 384-well Polypropylene Round Bottom #3656
Cell Plates: 384-well tissue culture treated plate, e.g. Greiner #781091-1B
Bath1 buffer. Glucose 10 mM (1.8 g/L), Magnesium Chloride (Anhydrous), 1 mM (0.095 g/L), Calcium Chloride, 2 mM (0.222 g/L), HEPES 10 mM (2.38 g/L), Potassium Chloride, 4.5 mM (0.335 g/L), Sodium Chloride 160 mM (9.35 g/L).
Hexyl Dye Solution: Bath1 Buffer+0.5% β-cyclodextrin (make this prior to use, Sigma #C4767), 8 μM CC2-DMPE+DiSBAC6(3). To make the solution Add volume of 10% Pluronic F127 stock equal to volumes of CC2-DMPE+DiSBAC6(3). The order of preparation is first mix Pluronic and CC2-DMPE, then add DiSBAC6(3) while vortexing, then add Bath1+β-Cyclodextrin.
1) Pre-spot compounds (in neat DMSO) into compound plates. Vehicle control (neat DMSO), the positive control (20 mM DMSO stock tetracaine, 125 μM final in assay) and test compounds are added to each well at 160× desired final concentration in neat DMSO. Final compound plate volume will be 80 μL (80-fold intermediate dilution from 1 μL DMSO spot; 160-fold final dilution after transfer to cell plate). Final DMSO concentration for all wells in assay is 0.625%.
2) Prepare Hexyl Dye Solution.
3) Prepare cell plates. On the day of the assay, medium is aspirated and cells are washed three times with 100 μL of Bathl Solution, maintaining 25 μL residual volume in each well.
4) Dispense 25 μL per well of Hexyl Dye Solution into cell plates. Incubate for 20-35 minutes at room temp or ambient conditions.
5) Dispense 80 μL per well of Bathl into compound plates. Acid Yellow-17 (1 mM) is added and Potassium Chloride can be altered from 4.5 to 20 mM depending on the NaV subtype and assay sensitivity.
6) Wash cell plates three times with 100 μL per well of Bathl, leaving 25 μL of residual volume. Then transfer 25 uL per well from Compound Plates to Cell Plates. Incubate for 20-35 minutes at room temp/ambient condition
7) Read Plate on E-VIPR. Use the current-controlled amplifier to deliver stimulation wave pulses for typically 9 seconds and a scan rate of 400 Hz. A pre-stimulus recording is performed for 0.5 seconds to obtain the un-stimulated intensities baseline. The stimulatory waveform is applied for 9 seconds followed by 0.5 seconds of post-stimulation recording to examine the relaxation to the resting state. […]
For the compound `Cc1cc(C(=O)N2CCC3(CC2)Oc2ccccc2-n2c(C#N)ccc23)ccc1[C@@](C)(O)CO` [Compound 54], the 50% inhibitory concentration (IC50) is below 2000 nM.
Consider `COC(=O)C(C)(C)c1ccc(C(=O)N2CCC3(CC2)Oc2ccccc2-c2c3cnn2C)cc1OC` [Compound 403], for which the 50% inhibitory concentration (IC50) was below 2000 nM.
As for `N#Cc1ccc2n1-c1ccccc1OC21CCN(C(=O)c2ccc(C(F)(F)F)cc2)CC1` [Compound 481], the half-inhibitory concentration (IC50) is above 5000 nM.
`COc1cc(C(=O)N2CCC3(CC2)Oc2cc(F)ccc2-n2cccc23)ccc1OC[C@H](O)CO` [Compound 606]: the IC50 is below 2000 nM.
As to `C[C@](O)(CO)c1ccc(C(=O)N2CCC3(CC2)Oc2ccccc2-n2c(C(F)(F)F)ccc23)cc1` [Compound 640], the IC50 was below 2000 nM.
`COc1cc(C(=O)N2CCC3(CC2)Oc2ccccc2-n2c(C#N)ccc23)ccc1OC[C@@H](O)CO` [Compound 680]: the concentration for half-maximal inhibition (IC50) is below 2000 nM.
